pIC50: −log10 of the molar value.
Key:
[1] = biological target: T1, Glucose-6-phosphate 1-dehydrogenase (Homo sapiens, UniProt P11413); assay: Inhibition of human recombinant N-terminal His tagged G6PD expressed in Escherichia coli JM109 (DE3) cells assessed as production of NADPH after 30 mins by Amplite fluorimetric assay
[2] = biological target: T1, Glucose-6-phosphate 1-dehydrogenase; assay: Inhibition of G6PD in HEK293T cells assessed as accumulation of 6-phosphogluconate after 5 hrs by LC-MS/MS analysis using 6-aminonicotinamide; assay type: cell-based, HEK-293T
[3] = biological target: T1, Glucose-6-phosphate 1-dehydrogenase; assay: Ratio of IC50 for G6PD in HEK293T cells to IC50 for human recombinant G6PD expressed in Escherichia coli JM109 (DE3) cells; settings: HEK-293T
[4] = Aqueous solubility of the compound in phosphate buffer by turbidimetric method; assay type: physicochemical
Cytochrome P450 1A = biological target: T2, Cytochrome P450 1A (Homo sapiens, UniProt P04798+P05177); assay: Inhibition of CYP1A at > 25 uM; assay type: ADME
T2 sequence (P04798 whole entry): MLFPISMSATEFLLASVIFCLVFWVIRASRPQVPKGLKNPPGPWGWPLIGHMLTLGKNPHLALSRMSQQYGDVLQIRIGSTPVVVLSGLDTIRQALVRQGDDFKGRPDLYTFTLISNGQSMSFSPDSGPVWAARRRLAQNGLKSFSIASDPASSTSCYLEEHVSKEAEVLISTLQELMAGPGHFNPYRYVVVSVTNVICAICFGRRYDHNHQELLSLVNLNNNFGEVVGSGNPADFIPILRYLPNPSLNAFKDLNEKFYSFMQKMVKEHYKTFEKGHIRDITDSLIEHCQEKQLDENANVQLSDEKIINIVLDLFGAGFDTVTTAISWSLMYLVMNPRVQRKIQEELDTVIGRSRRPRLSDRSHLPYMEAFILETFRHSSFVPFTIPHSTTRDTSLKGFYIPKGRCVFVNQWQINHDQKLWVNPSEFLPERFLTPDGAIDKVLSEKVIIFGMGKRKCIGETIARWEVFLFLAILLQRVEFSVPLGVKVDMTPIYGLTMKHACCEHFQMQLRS
T2 sequence (P05177 whole entry): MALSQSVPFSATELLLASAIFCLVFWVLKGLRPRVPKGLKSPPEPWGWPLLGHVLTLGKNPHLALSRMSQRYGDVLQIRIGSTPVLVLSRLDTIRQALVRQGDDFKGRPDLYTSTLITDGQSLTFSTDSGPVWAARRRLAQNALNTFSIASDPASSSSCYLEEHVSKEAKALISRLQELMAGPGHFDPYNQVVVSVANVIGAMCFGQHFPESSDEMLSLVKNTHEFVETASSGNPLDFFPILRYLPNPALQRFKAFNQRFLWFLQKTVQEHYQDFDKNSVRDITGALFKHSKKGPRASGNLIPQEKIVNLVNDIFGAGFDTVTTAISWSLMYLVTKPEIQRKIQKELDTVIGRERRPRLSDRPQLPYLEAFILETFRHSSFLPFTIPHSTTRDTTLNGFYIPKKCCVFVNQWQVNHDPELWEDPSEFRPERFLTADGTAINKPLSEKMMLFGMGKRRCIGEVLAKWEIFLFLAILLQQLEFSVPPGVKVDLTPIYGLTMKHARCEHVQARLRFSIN

Cytochrome P450 2C19 = Cytochrome P450 2C19 (Homo sapiens, UniProt P33261); assay: Inhibition of CYP2C19 at > 25 uM; assay type: ADME
Chain of Cytochrome P450 2C19 (P33261 whole entry): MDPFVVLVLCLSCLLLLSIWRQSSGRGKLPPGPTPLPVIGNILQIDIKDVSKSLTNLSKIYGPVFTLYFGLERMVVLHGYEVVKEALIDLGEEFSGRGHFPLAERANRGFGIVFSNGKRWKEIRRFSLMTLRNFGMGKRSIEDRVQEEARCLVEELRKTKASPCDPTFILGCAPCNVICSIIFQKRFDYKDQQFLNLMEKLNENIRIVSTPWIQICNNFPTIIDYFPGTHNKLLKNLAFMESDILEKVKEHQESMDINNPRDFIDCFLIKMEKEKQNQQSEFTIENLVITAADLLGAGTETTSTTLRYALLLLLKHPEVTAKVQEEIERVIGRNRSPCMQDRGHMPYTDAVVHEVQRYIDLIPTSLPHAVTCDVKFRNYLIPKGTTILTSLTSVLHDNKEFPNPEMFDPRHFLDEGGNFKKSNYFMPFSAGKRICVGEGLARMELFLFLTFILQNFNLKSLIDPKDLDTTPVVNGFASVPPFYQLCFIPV

Cytochrome P450 2C9 = Cytochrome P450 2C9 (Homo sapiens, UniProt P11712); assay: Inhibition of CYP2C9 at > 25 uM; assay type: ADME
Chain of Cytochrome P450 2C9 (P11712 whole entry): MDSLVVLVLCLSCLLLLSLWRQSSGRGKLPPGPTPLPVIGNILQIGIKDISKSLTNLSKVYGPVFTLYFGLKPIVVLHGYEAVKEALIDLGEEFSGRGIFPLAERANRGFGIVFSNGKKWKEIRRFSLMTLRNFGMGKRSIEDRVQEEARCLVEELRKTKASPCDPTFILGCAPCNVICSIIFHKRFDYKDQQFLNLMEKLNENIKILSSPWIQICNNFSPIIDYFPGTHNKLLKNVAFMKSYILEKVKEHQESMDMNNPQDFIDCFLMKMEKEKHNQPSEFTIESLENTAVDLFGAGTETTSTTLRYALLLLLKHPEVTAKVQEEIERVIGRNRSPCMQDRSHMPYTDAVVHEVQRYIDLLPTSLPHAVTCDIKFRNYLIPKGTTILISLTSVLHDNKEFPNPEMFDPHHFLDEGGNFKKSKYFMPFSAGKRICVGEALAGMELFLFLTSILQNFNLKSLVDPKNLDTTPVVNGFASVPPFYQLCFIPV

Cytochrome P450 2D6 = Cytochrome P450 2D6 (Homo sapiens, UniProt P10635); assay: Inhibition of CYP2D6 at > 25 uM; assay type: ADME
Chain of Cytochrome P450 2D6 (P10635 whole entry): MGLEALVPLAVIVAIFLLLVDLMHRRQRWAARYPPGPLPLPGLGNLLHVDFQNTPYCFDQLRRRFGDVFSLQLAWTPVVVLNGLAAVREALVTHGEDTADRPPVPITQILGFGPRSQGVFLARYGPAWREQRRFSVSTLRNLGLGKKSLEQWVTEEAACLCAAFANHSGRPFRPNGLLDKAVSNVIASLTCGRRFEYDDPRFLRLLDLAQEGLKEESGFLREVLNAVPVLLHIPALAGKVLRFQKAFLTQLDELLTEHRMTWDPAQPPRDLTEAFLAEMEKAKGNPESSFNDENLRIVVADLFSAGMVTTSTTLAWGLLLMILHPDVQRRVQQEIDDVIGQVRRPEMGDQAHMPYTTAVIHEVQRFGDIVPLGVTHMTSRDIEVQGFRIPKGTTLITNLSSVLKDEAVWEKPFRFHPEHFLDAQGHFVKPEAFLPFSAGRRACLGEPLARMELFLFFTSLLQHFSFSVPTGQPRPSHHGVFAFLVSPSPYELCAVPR

Cytochrome P450 3A4 = Cytochrome P450 3A4 (Homo sapiens, UniProt P08684); assay: Inhibition of CYP3A4 at > 25 uM; assay type: ADME
Chain of Cytochrome P450 3A4 (P08684 whole entry): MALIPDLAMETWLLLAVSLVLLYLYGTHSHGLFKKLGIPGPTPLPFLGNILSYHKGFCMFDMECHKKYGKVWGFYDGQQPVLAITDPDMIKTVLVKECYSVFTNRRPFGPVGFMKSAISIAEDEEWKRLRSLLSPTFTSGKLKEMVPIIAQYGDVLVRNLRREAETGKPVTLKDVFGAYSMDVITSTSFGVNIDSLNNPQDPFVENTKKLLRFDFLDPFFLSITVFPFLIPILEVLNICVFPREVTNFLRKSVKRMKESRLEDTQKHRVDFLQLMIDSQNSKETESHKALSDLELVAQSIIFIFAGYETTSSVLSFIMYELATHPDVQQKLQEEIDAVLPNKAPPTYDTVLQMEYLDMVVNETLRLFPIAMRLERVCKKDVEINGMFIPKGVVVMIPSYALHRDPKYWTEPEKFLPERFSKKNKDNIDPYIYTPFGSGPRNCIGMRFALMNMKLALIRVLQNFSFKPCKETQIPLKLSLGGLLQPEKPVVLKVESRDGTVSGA

T1 sequence (P11413 whole entry): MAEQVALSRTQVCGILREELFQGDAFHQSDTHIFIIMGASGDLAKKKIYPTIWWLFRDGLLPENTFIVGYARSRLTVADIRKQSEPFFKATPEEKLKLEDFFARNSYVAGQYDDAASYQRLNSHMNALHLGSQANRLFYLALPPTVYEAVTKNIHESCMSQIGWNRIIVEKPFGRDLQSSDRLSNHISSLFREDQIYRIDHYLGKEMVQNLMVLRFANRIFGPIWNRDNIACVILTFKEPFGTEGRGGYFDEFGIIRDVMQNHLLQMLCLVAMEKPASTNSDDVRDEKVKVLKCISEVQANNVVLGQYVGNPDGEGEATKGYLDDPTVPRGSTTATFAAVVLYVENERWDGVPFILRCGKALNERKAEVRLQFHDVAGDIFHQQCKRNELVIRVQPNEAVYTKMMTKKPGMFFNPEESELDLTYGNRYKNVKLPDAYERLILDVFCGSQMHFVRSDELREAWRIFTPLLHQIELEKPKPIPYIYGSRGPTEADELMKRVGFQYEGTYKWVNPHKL

## C[C@]12CC[C@H](O)C[C@@H]1CC[C@@H]1[C@@H]2CC[C@]2(C)[C@@H](C(=O)CO)CC[C@@H]12
[1]
  pIC50: 6.05
[2]
  pIC50: 4.91
[3]
  Ratio IC50: 13.7
[4]
  solubility kinetic: > 100 µM
Cytochrome P450 1A
  inhibition (INH): Not Active
Cytochrome P450 2C19
  inhibition (INH): Not Active
Cytochrome P450 2C9
  inhibition (INH): Not Active
Cytochrome P450 2D6
  inhibition (INH): Not Active
Cytochrome P450 3A4
  inhibition (INH): Not Active

Source: ChEMBL document CHEMBL2057131, “Novel steroid inhibitors of glucose 6-phosphate dehydrogenase” (J Med Chem, 2012)
